This is an account of results in patent publication US11299480B2, “2-arylsulfonamido-N-arylacetamide derivatized STAT3 inhibitors” (University of Hawaii, priority 2017, dated 2022).

The experiment deals with Stat3 (Mus musculus, UniProt P42227). The class given is biochemical. Conditions: Stat3 DNA-binding activity in vitro; nuclear extracts pre-incubated with compound 30 min at room temperature, hSIE probe; read-out: EMSA IC50. How it is done: FIG. 1. Effect of select compounds of the present invention on Stat3 DNA-binding activity in vitro. […] Positions of Stat3:DNA complexes in gel are labeled; control lanes (0) represent nuclear extracts pre-treated with 10% DMSO.
Stat3, sequence (P42227 2-770 limits assumed): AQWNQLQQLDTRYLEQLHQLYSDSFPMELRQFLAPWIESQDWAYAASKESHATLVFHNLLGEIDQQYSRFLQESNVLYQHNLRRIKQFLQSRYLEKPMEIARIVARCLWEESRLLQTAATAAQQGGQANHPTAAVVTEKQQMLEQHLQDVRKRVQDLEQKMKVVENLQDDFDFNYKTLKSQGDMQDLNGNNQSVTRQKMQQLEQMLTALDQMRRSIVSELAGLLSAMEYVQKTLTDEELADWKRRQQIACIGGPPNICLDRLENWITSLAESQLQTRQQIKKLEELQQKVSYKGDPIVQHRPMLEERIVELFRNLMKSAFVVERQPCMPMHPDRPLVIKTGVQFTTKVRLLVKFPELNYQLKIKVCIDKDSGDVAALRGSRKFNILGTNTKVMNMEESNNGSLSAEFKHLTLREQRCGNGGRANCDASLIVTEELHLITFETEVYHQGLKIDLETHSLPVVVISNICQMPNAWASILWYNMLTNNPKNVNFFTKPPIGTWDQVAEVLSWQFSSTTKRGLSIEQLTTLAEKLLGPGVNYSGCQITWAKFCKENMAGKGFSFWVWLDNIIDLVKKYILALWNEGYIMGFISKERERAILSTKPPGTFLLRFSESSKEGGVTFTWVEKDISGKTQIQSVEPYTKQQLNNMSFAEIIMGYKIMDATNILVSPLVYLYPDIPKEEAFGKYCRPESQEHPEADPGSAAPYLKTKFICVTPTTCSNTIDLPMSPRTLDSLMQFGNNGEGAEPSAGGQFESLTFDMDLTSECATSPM
Except where indicated, nuclear extracts were pre-incubated with compound for 30 min at room temperature prior to incubation with the radiolabeled probe for 30 min at 30° C. before subjecting to EMSA analysis. Where appropriate, bands corresponding to Stat3:DNA complexes were scanned and quantified for each concentration of compound using ImageJ and plotted as percent of control (DMSO) against concentration of compound, from which the IC50 values were derived.
One may read the IC50 as the point on the concentration scale where inhibition reaches its midpoint. Take `O=C(O)c1ccc(N(Cc2ccc(C3CCOCC3)cc2)C(=O)[C@H]2CCCN2S(=O)(=O)c2c(F)c(F)c(F)c(F)c2F)cc1O` [Example 27, (R)-2-Hydroxy-4-(1-((pentafluorophenyl)sulfonyl)-N-(4-(tetrahydro-2H-pyran-4-yl)benzyl)pyrrolidine-2-carboxamido)benzoic acid]: the IC50 was found to be 5400 nM. As for `O=C(O)c1ccc(N(Cc2ccc(C3CCOC3)cc2)C(=O)[C@H]2CCCN2S(=O)(=O)c2c(F)c(F)c(F)c(F)c2F)cc1O` (stereo partly drawn) [Example 29, 2-Hydroxy-4-((2R)-1-((pentafluorophenyl)sulfonyl)-N-(4-(tetrahydrofuran-3-yl)benzyl)pyrrolidine-2-carboxamido)benzoic acid], the figure is 4500 ± 1000 nM; as for `O=C(O)c1ccc(N(Cc2ccc(C3CCCCC3)cc2)C(=O)[C@H]2CCCCN2S(=O)(=O)c2c(F)c(F)c(F)c(F)c2F)cc1O` [Example 32, (R)-4-(N-(4-cyclohexylbenzyl)-1-((pentafluorophenyl)sulfonyl)piperidine-2-carboxamido)-2-hydroxybenzoic acid], 5400 ± 1600 nM; as for `O=C(O)c1ccc(N(Cc2ccc(C3CCCCC3)cc2)C(=O)[C@H]2CCCN2S(=O)(=O)c2c(F)c(F)c(F)c(F)c2F)c(F)c1` [Example 39, (R)-4-(N-(4-cyclohexylbenzyl)-1-((perfluorophenyl)sulfonyl)pyrrolidine-2-carboxamido)-3-fluorobenzoic acid], 5300 ± 400 nM. Regarding `O=C(O)c1ccc(N(Cc2ccc(C3CCCCC3)cc2)C(=O)[C@H]2CCCN2S(=O)(=O)c2c(F)c(F)c(F)c(F)c2F)cc1Cl` [Example 46, (R)-2-chloro-4-(N-(4-cyclohexylbenzyl)-1-((perfluorophenyl)sulfonyl)pyrrolidine-2-carboxamido)benzoic acid], the IC50 came to 3800 ± 800 nM. The result for `Cc1cc(C(=O)O)cc(C)c1N(Cc1ccc(C2CCCCC2)cc1)C(=O)[C@@H](C)N(C)S(=O)(=O)c1c(F)c(F)c(F)c(F)c1F` [Example 47, (R)-4-(N-(4-cyclohexylbenzyl)-2-((2,3,4,5,6-pentafluoro-N-methylphenyl)sulfonamido)propanamido)-3,5-dimethylbenzoic acid] reads 4200 ± 700 nM. As for `O=C(NO)c1ccc(N(Cc2ccc(C3CCCCC3)cc2)C(=O)[C@H]2CCN2S(=O)(=O)c2c(F)c(F)c(F)c(F)c2F)c(F)c1` [Example 50, (R)—N-(4-cyclohexylbenzyl)-N-(2-fluoro-4-(hydroxycarbamoyl)phenyl)-1-((perfluorophenyl)sulfonyl)azetidine-2-carboxamide], the figure is 1750 ± 190 nM; as for `O=C(O)c1ccc(N(Cc2ccc(C3CCCC3)cc2)C(=O)[C@H]2CCCN2S(=O)(=O)c2c(F)c(F)c(F)c(F)c2F)cc1O` [Example 79, (R)-4-(N-(4-cyclopentylbenzyl)-1-((perfluorophenyl)sulfonyl)pyrrolidine-2-carboxamido)-2-hydroxybenzoic acid], 3600 ± 300 nM. As for `O=C(NO)c1ccc(N(Cc2ccc(C3CCCCC3)cc2)C(=O)[C@H]2CCN2S(=O)(=O)c2c(F)c(F)c(F)c(F)c2F)cc1` [Example 83, (R)—N-(4-cyclohexylbenzyl)-N-(4-(hydroxycarbamoyl)phenyl)-1-((perfluorophenyl)sulfonyl)azetidine-2-carboxamide], the figure is 2510 ± 230 nM; as for `O=C(NO)c1ccc(N(Cc2ccc(C3CCOCC3)cc2)C(=O)[C@H]2CCN2S(=O)(=O)c2c(F)c(F)c(F)c(F)c2F)cc1O` [Example 84, (R)—N-(3-hydroxy-4-(hydroxycarbamoyl)phenyl)-1-((perfluorophenyl)sulfonyl)-N-(4-(tetrahydro-2H-pyran-4-yl)benzyl)azetidine-2-carboxamide], 2070 ± 120 nM; as for `O=C(NO)c1ccc(N(Cc2ccc(C3CCCCC3)cc2)C(=O)[C@H]2CCN2S(=O)(=O)c2c(F)c(F)c(F)c(F)c2F)cc1O` [Example 85, (R)—N-(4-cyclohexylbenzyl)-N-(3-hydroxy-4-(hydroxycarbamoyl)phenyl)-1-((perfluorophenyl)sulfonyl)azetidine-2-carboxamide], 1320 ± 360 nM. Turning to `O=C(NO)c1ccc(N(Cc2ccc(C3CCOCC3)cc2)C(=O)[C@H]2CCN2S(=O)(=O)c2c(F)c(F)c(F)c(F)c2F)cc1` [Example 87, (R)—N-(4-(hydroxycarbamoyl)phenyl)-1-((perfluorophenyl)sulfonyl)-N-(4-(tetrahydro-2H-pyran-4-yl)benzyl)azetidine-2-carboxamide], the IC50 turned out to be 2920 ± 120 nM. The result for `O=C(NO)c1ccc(N(Cc2ccc(C3CCCC3)cc2)C(=O)[C@H]2CCN2S(=O)(=O)c2c(F)c(F)c(F)c(F)c2F)cc1` [Example 88, (R)—N-(4-cyclopentylbenzyl)-N-(4-(hydroxycarbamoyl)phenyl)-1-((perfluorophenyl)sulfonyl) azetidine-2-carboxamide] reads 2250 ± 720 nM; that for `O=C(NO)c1cc(F)c(N(Cc2ccc(C3CCOCC3)cc2)C(=O)[C@H]2CCN2S(=O)(=O)c2c(F)c(F)c(F)c(F)c2F)cc1O` [Example 89, (R)—N-(2-fluoro-5-hydroxy-4-(hydroxycarbamoyl)phenyl)-1-((perfluorophenyl)sulfonyl)-N-(4-(tetrahydro-2H-pyran-4-yl)benzyl)azetidine-2-carboxamide], 2110 ± 240 nM; that for `COC(=O)c1ccc(N(Cc2ccc(C3CCCCC3)nc2)C(=O)[C@H]2CCN2S(=O)(=O)c2c(F)c(F)c(F)c(F)c2F)cc1O` [Example 92, Methyl (R)-4-(N-((6-cyclohexylpyridin-3-yl)methyl)-1-((perfluorophenyl)sulfonyl)azetidine-2-carboxamido)-2-hydroxybenzoate], 1050 ± 125 nM. As for `O=C([C@H]1CCN1S(=O)(=O)c1c(F)c(F)c(F)c(F)c1F)N(Cc1ccc(C2CCCCC2)cc1)c1ccc2nc[nH]c2c1` [Example 99, (R)—N-(M-benzo[d]imidazol-6-yl)-N-(4-cyclohexylbenzyl)-1-((perfluorophenyl)sulfonyl)azetidine-2-carboxamide], the IC50 worked out at 2350 ± 546 nM.

As to `O=C([C@H]1CCN1S(=O)(=O)c1c(F)c(F)c(F)c(F)c1F)N(Cc1ccc(C2CCCCC2)cn1)c1ccc2c(=O)[nH]ncc2c1` [Example 102, (R)—N-((5-cyclohexylpyridin-2-yl)methyl)-N-(1-oxo-1,2-dihydrophthalazin-6-yl)-1-((perfluorophenyl)sulfonyl)azetidine-2-carboxamide], the IC50 amounted to 663 ± 182 nM. The result for `O=C(O)c1ccc(N(Cc2ccc(C3CCCCC3)cn2)C(=O)[C@H]2CCN2S(=O)(=O)c2c(F)c(F)c(F)c(F)c2F)c(F)c1` [Example 108, (R)-4-(N-((5-cyclohexylpyridin-2-yl)methyl)-1-((perfluorophenyl)sulfonyl)azetidine-2-carboxamido)-3-fluorobenzoic acid] reads 755 ± 110 nM; that for `O=C(O)c1ccc(N(Cc2ccc(C3CCCCC3)cn2)C(=O)[C@H]2CCN2S(=O)(=O)c2c(F)c(F)c(F)c(F)c2F)cc1F` [Example 116, (R)-4-(N-((5-cyclohexylpyridin-2-yl)methyl)-1-((perfluorophenyl)sulfonyl)azetidine-2-carboxamido)-2-fluorobenzoic acid], 856 ± 112 nM; that for `O=C(O)c1ccc(N(Cc2ccc(C3CCCC3)cn2)C(=O)[C@H]2CCN2S(=O)(=O)c2c(F)c(F)c(F)c(F)c2F)c(F)c1` [Example 124, (R)-4-(N-((5-cyclopentylpyridin-2-yl)methyl)-1-((perfluorophenyl)sulfonyl)azetidine-2-carboxamido)-3-fluorobenzoic acid], 1180 ± 187 nM.
